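Protocol summary: plate cells (96-well), add compound at 5 concentrations, incubate 48 h, interpolate endpoints linearly. TGI marks complete inhibition of growth.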
How the values were obtained:
Experiment in all cases: NCI-60 cell line screen, 48 h
HS 578T breast = test system: HS 578T breast
SF-295 CNS = test system: SF-295 CNS
MALME-3M melanoma = test system: MALME-3M melanoma
HT29 colon = test system: HT29 colon
OVCAR-4 ovarian = test system: OVCAR-4 ovarian
UACC-62 melanoma = test system: UACC-62 melanoma
CAKI-1 renal = test system: CAKI-1 renal
NCI-H460 lung = test system: NCI-H460 lung
OVCAR-5 ovarian = test system: OVCAR-5 ovarian
EKVX NSCLC = test system: EKVX NSCLC
NCI-H522 lung = test system: NCI-H522 lung
HOP-62 NSCLC = test system: HOP-62 NSCLC
SK-MEL-28 melanoma = test system: SK-MEL-28 melanoma
A498 renal = test system: A498 renal
U251 CNS = test system: U251 CNS
LOX IMVI melanoma = test system: LOX IMVI melanoma
MDA-MB-231 breast = test system: MDA-MB-231 breast
SN12C renal = test system: SN12C renal
A549 NSCLC = test system: A549 NSCLC
T-47D breast = test system: T-47D breast
HL-60(TB) leukemia = test system: HL-60(TB) leukemia
OVCAR-8 ovarian = test system: OVCAR-8 ovarian
SNB-75 CNS = test system: SNB-75 CNS
HCT-116 colon = test system: HCT-116 colon
RXF 393 renal = test system: RXF 393 renal
MDA-N = test system: MDA-N
TK-10 renal = test system: TK-10 renal
M14 melanoma = test system: M14 melanoma
UO-31 renal = test system: UO-31 renal
HCC-2998 colon = test system: HCC-2998 colon
PC-3 prostate = test system: PC-3 prostate
K-562 leukemia = test system: K-562 leukemia
KM12 colon = test system: KM12 colon
DU-145 prostate = test system: DU-145 prostate
MDA-MB-435 = test system: MDA-MB-435
NCI-H226 lung = test system: NCI-H226 lung
SK-MEL-5 melanoma = test system: SK-MEL-5 melanoma
786-0 renal = test system: 786-0 renal
SR leukemia = test system: SR leukemia
SK-OV-3 ovarian = test system: SK-OV-3 ovarian
SNB-19 CNS = test system: SNB-19 CNS
BT-549 breast = test system: BT-549 breast
MOLT-4 leukemia = test system: MOLT-4 leukemia
HCT-15 colon = test system: HCT-15 colon
NCI/ADR-RES ovarian = test system: NCI/ADR-RES ovarian
IGROV1 ovarian = test system: IGROV1 ovarian
COLO 205 colon = test system: COLO 205 colon
NCI-H23 lung = test system: NCI-H23 lung
RPMI-8226 leukemia = test system: RPMI-8226 leukemia
SW-620 colon = test system: SW-620 colon
ACHN renal = test system: ACHN renal
MCF7 breast = test system: MCF7 breast
CCRF-CEM leukemia = test system: CCRF-CEM leukemia
HOP-92 NSCLC = test system: HOP-92 NSCLC
OVCAR-3 ovarian = test system: OVCAR-3 ovarian
SF-268 CNS = test system: SF-268 CNS
SK-MEL-2 melanoma = test system: SK-MEL-2 melanoma
UACC-257 melanoma = test system: UACC-257 melanoma
SF-539 CNS = test system: SF-539 CNS

NC(=O)C1CCCN1C(=O)C(Cc1cnc[nH]1)NC(=O)C1CCCC1 (stereo not given)
TGI (HS 578T breast): > 100 µM
TGI (SF-295 CNS): > 100 µM
TGI (MALME-3M melanoma): > 100 µM
TGI (HT29 colon): > 100 µM
TGI (OVCAR-4 ovarian): > 100 µM
TGI (UACC-62 melanoma): > 100 µM
TGI (CAKI-1 renal): > 100 µM
TGI (NCI-H460 lung): > 100 µM
TGI (OVCAR-5 ovarian): > 100 µM
TGI (EKVX NSCLC): > 100 µM
TGI (NCI-H522 lung): > 100 µM
TGI (HOP-62 NSCLC): > 100 µM
TGI (SK-MEL-28 melanoma): > 100 µM
TGI (A498 renal): > 100 µM
TGI (U251 CNS): > 100 µM
TGI (LOX IMVI melanoma): > 100 µM
TGI (MDA-MB-231 breast): > 100 µM
TGI (SN12C renal): > 100 µM
TGI (A549 NSCLC): > 100 µM
TGI (T-47D breast): > 100 µM
TGI (HL-60(TB) leukemia): > 100 µM
TGI (OVCAR-8 ovarian): > 100 µM
TGI (SNB-75 CNS): > 100 µM
TGI (HCT-116 colon): > 100 µM
TGI (RXF 393 renal): > 100 µM
TGI (MDA-N): > 100 µM
TGI (TK-10 renal): > 100 µM
TGI (M14 melanoma): > 100 µM
TGI (UO-31 renal): > 100 µM
TGI (HCC-2998 colon): > 100 µM
TGI (PC-3 prostate): > 100 µM
TGI (K-562 leukemia): > 100 µM
TGI (KM12 colon): > 100 µM
TGI (DU-145 prostate): > 100 µM
TGI (MDA-MB-435): > 100 µM
TGI (NCI-H226 lung): > 100 µM
TGI (SK-MEL-5 melanoma): > 100 µM
TGI (786-0 renal): > 100 µM
TGI (SR leukemia): > 100 µM
TGI (SK-OV-3 ovarian): > 100 µM
TGI (SNB-19 CNS): > 100 µM
TGI (BT-549 breast): > 100 µM
TGI (MOLT-4 leukemia): > 100 µM
TGI (HCT-15 colon): > 100 µM
TGI (NCI/ADR-RES ovarian): > 100 µM
TGI (IGROV1 ovarian): > 100 µM
TGI (COLO 205 colon): > 100 µM
TGI (NCI-H23 lung): > 100 µM
TGI (RPMI-8226 leukemia): > 100 µM
TGI (SW-620 colon): > 100 µM
TGI (ACHN renal): > 100 µM
TGI (MCF7 breast): > 100 µM
TGI (CCRF-CEM leukemia): > 100 µM
TGI (HOP-92 NSCLC): > 100 µM
TGI (OVCAR-3 ovarian): > 100 µM

Cc1cc(S(=O)(=O)NC2=NCc3nc4ccccc4n32)c(S)cc1Cl
TGI (HS 578T breast): 63.3 µM
TGI (SF-295 CNS): 37.6 µM
TGI (MALME-3M melanoma): 56.2 µM
TGI (OVCAR-4 ovarian): 83.2 µM
TGI (UACC-62 melanoma): 33.3 µM
TGI (CAKI-1 renal): > 100 µM
TGI (NCI-H460 lung): 82.4 µM
TGI (OVCAR-5 ovarian): 65.1 µM
TGI (EKVX NSCLC): 86 µM
TGI (NCI-H522 lung): > 100 µM
TGI (SK-MEL-28 melanoma): > 100 µM
TGI (A498 renal): 70.7 µM
TGI (U251 CNS): > 100 µM
TGI (LOX IMVI melanoma): 35 µM
TGI (MDA-MB-231 breast): 55.9 µM
TGI (SN12C renal): 51 µM
TGI (A549 NSCLC): 83.2 µM
TGI (SF-268 CNS): > 100 µM
TGI (T-47D breast): 50.3 µM
TGI (HL-60(TB) leukemia): 51.8 µM
TGI (OVCAR-8 ovarian): > 100 µM
TGI (SK-MEL-2 melanoma): 29.2 µM
TGI (SNB-75 CNS): 60.4 µM
TGI (HCT-116 colon): 34.5 µM
TGI (RXF 393 renal): 33 µM
TGI (MDA-N): 58.1 µM
TGI (TK-10 renal): > 100 µM
TGI (M14 melanoma): 63 µM
TGI (UO-31 renal): 63.6 µM
TGI (HCC-2998 colon): 35.7 µM
TGI (PC-3 prostate): 55.6 µM
TGI (K-562 leukemia): > 100 µM
TGI (KM12 colon): 38 µM
TGI (DU-145 prostate): > 100 µM
TGI (MDA-MB-435): 82.8 µM
TGI (NCI-H226 lung): 40.9 µM
TGI (SK-MEL-5 melanoma): 32.1 µM
TGI (UACC-257 melanoma): 62.2 µM
TGI (786-0 renal): 47.8 µM
TGI (SR leukemia): 49.4 µM
TGI (SF-539 CNS): 42.7 µM
TGI (SNB-19 CNS): > 100 µM
TGI (BT-549 breast): 71.9 µM
TGI (MOLT-4 leukemia): 50.2 µM
TGI (HCT-15 colon): 59.1 µM
TGI (NCI/ADR-RES ovarian): 54.6 µM
TGI (IGROV1 ovarian): 69.7 µM
TGI (COLO 205 colon): 34.4 µM
TGI (RPMI-8226 leukemia): 47.6 µM
TGI (SW-620 colon): > 100 µM
TGI (ACHN renal): > 100 µM
TGI (MCF7 breast): 70.1 µM
TGI (CCRF-CEM leukemia): 86.6 µM
TGI (HOP-92 NSCLC): 47.2 µM
TGI (OVCAR-3 ovarian): 40.3 µM

— PubChem BioAssay (NCI)
